Source: patent publication US9072293B2, “Cyclopropenes and method for applying cyclopropenes to agricultural products or crops” (Erum Biotechnologies Inc., priority 2010, dated 2015)
Several values for one entry are separate records, joined by “and”; a condition that tells them apart may be missing. Equal entries are not always repeated.

Tests used:
[1] = 1,000 ppm (v/v) or less concentration, room temperature; cited from earlier work
tomato [2] = assay: Experimental Example 2: Efficacy test on tomato using oil based formulation (reddening grade); type: in vivo; details: 1.0 mM oil-based formulation, individual tomatoes n=4
Procedure, shortened: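 Tomatoes (n=4 per group) sprayed to surface saturation with 1.0 mM oil-based (xylene/hexane) cyclopropene formulations, versus untreated and solvent controls. Kept 3 days at 25–30 °C; ripening scored 0–5 by area of red coloration.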

[3] = Relative chemical stability of cyclopropenes measured by 1H-NMR; type: physicochemical
Procedure, shortened: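 Compounds in CDCl3 NMR tubes stored at −20° C. or room temperature and followed by 1H-NMR. Integrals of characteristic 1-alkylcyclopropene peaks (4–6.5 ppm, 1H; 0.8–0.9 ppm, 2H) compared against 1,1,3,3-tetramethylurea internal standard (2.80 ppm); stability expressed relative to chain-length-1 analogue.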

tomato [4] = assay: Experimental Example 1: Efficacy test on tomato using emulsion (reddening grade); type: in vivo; details: individual tomatoes n=4

SMILES	half life [1] [h]	Tomato results: reddening level (grade 0 to 5) (tomato [2]; Day 0, room temperature (25-30° C.))	Tomato results: reddening level (grade 0 to 5) (tomato [2]; Day 1, room temperature (25-30° C.))	Tomato results: reddening level (grade 0 to 5) (tomato [2]; Day 2, room temperature (25-30° C.))	Tomato results: reddening level (grade 0 to 5) (tomato [2]; Day 3, room temperature (25-30° C.))	chemical stability (in words) [3]	Stability (relative chemical stability, based on cyclopropenes having a chain length of 1) ([3]; 1H-NMR, CDCl3, stored at −20° C. or room temperature, relative to chain length 1)	reddening level (grade 0 to 5) (tomato [4]; 100 μM, Day 0, room temperature (25-30° C.))	reddening level (grade 0 to 5) (tomato [4]; 100 μM, Day 1, room temperature (25-30° C.))	reddening level (grade 0 to 5) (tomato [4]; 100 μM, Day 2, room temperature (25-30° C.))	reddening level (grade 0 to 5) (tomato [4]; 100 μM, Day 3, room temperature (25-30° C.))	reddening level (grade 0 to 5) (tomato [4]; 1.0 mM, Day 0, room temperature (25-30° C.))	reddening level (grade 0 to 5) (tomato [4]; 1.0 mM, Day 1, room temperature (25-30° C.))	reddening level (grade 0 to 5) (tomato [4]; 1.0 mM, Day 2, room temperature (25-30° C.))	reddening level (grade 0 to 5) (tomato [4]; 1.0 mM, Day 3, room temperature (25-30° C.))
CC1=CC1 [1-methylcyclopropene]	≥ 240														
C1=C(CCCc2ccccc2)C1 [(3-Phenylpropyl), 1-(3-phenylpropyl)cyclopropene]		0 (an area in which the surface of tomato was colored in pink was 10% or less) (2×) and 1 (an area in which the surface of tomato was completely colored in red was 10 to 40%) and 2 (an area in which the surface of tomato was completely colored in red was 40 to 70%)	0 (an area in which the surface of tomato was colored in pink was 10% or less) (2×) and 1 (an area in which the surface of tomato was completely colored in red was 10 to 40%) and 2 (an area in which the surface of tomato was completely colored in red was 40 to 70%)	0 (an area in which the surface of tomato was colored in pink was 10% or less) (2×) and 1 (an area in which the surface of tomato was completely colored in red was 10 to 40%) and 3 (an area in which the surface of tomato was completely colored in red was 70% or more and the bottom area remained green)	1 (an area in which the surface of tomato was completely colored in red was 10 to 40%) (2×) and 2 (an area in which the surface of tomato was completely colored in red was 40 to 70%) and 4	much more stable	>>10	0 (an area in which the surface of tomato was colored in pink was 10% or less) (2×) and 1 (an area in which the surface of tomato was completely colored in red was 10 to 40%) and 2 (an area in which the surface of tomato was completely colored in red was 40 to 70%)	1 (an area in which the surface of tomato was completely colored in red was 10 to 40%) (3×) and 2 (an area in which the surface of tomato was completely colored in red was 40 to 70%)	1 (an area in which the surface of tomato was completely colored in red was 10 to 40%) (2×) and 2 (an area in which the surface of tomato was completely colored in red was 40 to 70%) and 3 (an area in which the surface of tomato was completely colored in red was 70% or more and the bottom area remained green)	2 (an area in which the surface of tomato was completely colored in red was 40 to 70%) (2×) and 3 (an area in which the surface of tomato was completely colored in red was 70% or more and the bottom area remained green) and 4	0 (an area in which the surface of tomato was colored in pink was 10% or less) (2×) and 1 (an area in which the surface of tomato was completely colored in red was 10 to 40%) and 2 (an area in which the surface of tomato was completely colored in red was 40 to 70%)	0 (an area in which the surface of tomato was colored in pink was 10% or less) (2×) and 1 (an area in which the surface of tomato was completely colored in red was 10 to 40%) and 2 (an area in which the surface of tomato was completely colored in red was 40 to 70%)	1 (an area in which the surface of tomato was completely colored in red was 10 to 40%) (2×) and 0 (an area in which the surface of tomato was colored in pink was 10% or less) and 3 (an area in which the surface of tomato was completely colored in red was 70% or more and the bottom area remained green)	1 (an area in which the surface of tomato was completely colored in red was 10 to 40%) (2×) and 2 (an area in which the surface of tomato was completely colored in red was 40 to 70%) and 3 (an area in which the surface of tomato was completely colored in red was 70% or more and the bottom area remained green)
